Source: patent US20260174766A1, “COMBINATION OF MENIN INHIBITOR(S) AND IMMUNOPROTEASOME INHIBITOR(S) FOR TREATMENT OF LEUKEMIA” (Medizinische Hochschule Hannover, priority 2022, published 2026)

Assays:
MLLr cell lines = test: Cell growth (cell counting after trypan blue exclusion) of MLLr cell lines; assay type: cell-based, human; conditions: 250-500 nM; MOLM-13, MV-4;11, ML-2, KOPN-8; FIG. 1H
Procedure: MOLM-13, MONO-MAC-6, THP-1, KOPN-8, ML-2, MV-4;11, OCI-AML3, U-937, KASUMI-1, K-562, HL-60 and LAMA-84 cells were purchased from DSMZ (Braunschweig, Germany). Cas9-Blast cell lines are subclones of the respective cell lines and stably transduced with lentiCas9-Blast (Addgene plasmid #52962). Cells were cultured in RPMI 1640 medium (Thermo Fisher Scientific, Waltham, MA, USA) supplemented with 10-20% FBS (Thermo Fisher Scientific) in a humid atmosphere of 5% CO2 at 37° C. MV4;11 cells harboring Menin-inhibitor resistance mediating mutations of Menin were generated by CRISPR-Cas9 technology.
Cellular proliferation was assessed by cell counting after trypan blue exclusion. Apoptosis of cells was measured by flow cytometry using Annexin V/SYTOX® Blue staining following the manufacturer's instruction.

[1] = test system: primary human leukemia cells harboring an MLL-AF4 fusion; test: MLL-AF4 patient-derived xenograft model with in vivo treatment and limiting dilution assay; parameters: species or system mouse; conditions: ELDA; engraftment >1% hCD45+ in peripheral blood three months after transplantation; DMSO 1/247973
Excerpt: NOD.Cg-Prkdc^scid Il2rg^tm1Wjl Tg(CMV-IL3, CSF2, KITLG) 1Eav/MloySzJ (NSGS), NOD.Cg-Prkdc^scid Il2rg^tm1Wjl/SzJ (NSG) or NOD.Cg-Prkdc^scid Il2rg^tm1Wjl/RJ (NXG) were obtained from The Jackson Laboratory (Bar Harbor, ME, USA). 8-12-weeks old adult mice (male and female) were irradiated with 2 Gy (single dose) before transplantation. 1×10^5 MOLM-13, ML-2 or MV-4; 11 cells transduced with either of two PSMB8/LMP7 shRNAs or non-targeting control; with a pLEX vector containing the sequence of BASP1 or an empty vector; or treated ex vivo with the indicated inhibitors were injected intravenously via the tail vein. For patient derived xenograft experiments (PDX) of human MLLr leukemia we used an improved model for human HSC transplantation and analysis, that has been developed from immune-deficient mouse strains containing Kit mutations: NOD.Cg-^KitW-41J Prkdc^scid Il2rg^tm1Wjl/WaskJ (NSGW41) (Cosgun et al., 2014). […] Human myeloid engraftment (hCD45+ CD13+) was analyzed by flow cytometry. […]
FIGS. 4J-4K show number of engrafted mice per dilution (engraftment is considered if the percentage of hCD45+ cells is >1% in peripheral blood three months after transplantation) is shown and leukemic stem cell (LSC) frequency calculated using the ELDA (Extreme Limiting Dilution Assay) software (reference). […]

SMILES | reduction of cell growth in MLL-rearranged human AML cell lines (MLLr cell lines) | LSC frequency [1]
O=C(N[C@H](Cc1coc2ccccc12)B(O)O)[C@@H]1C[C@@H]2CC[C@H]1O2 [M3258, ((S)-2-(benzofuran-3-yl)-1-((1R,2R,4S)-7-oxabicyclo[2.2.1]heptane-2-carboxamido)ethyl)boronic acid] | recapitulated | 
Cc1c(CN2CCC(Nc3ncnc4sc(CC(F)(F)F)cc34)CC2)ccc2c1cc(C#N)n2Cc1cn[nH]c1 [MI-503, 4-Methyl-1-(1H-pyrazol-4-ylmethyl)-5-[[4-[[6-(2,2,2-trifluoroethyl)thieno[2,3-d]pyrimidin-4-yl]amino]-1-piperidinyl]methyl]-1H-indole-2-carbonitrile] |  | 1/363914
